Results published in patent US10975060B2, “High relaxivity gadolinium chelate compounds for use in magnetic resonance imaging” (BAYER PHARMA AKTIENGESELLSCHAFT, priority 2016, dated 2021).

Key:
[1] = Relaxivity measurements at 1.4 T (MiniSpec mq60, 60 MHz, 37 °C) in water and human plasma; format: physicochemical; details: 1.41 T, normalized to Gd
Procedure, shortened: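 T1 by inversion recovery and T2 by CPMG, relaxation delay ≥5×T1, at three Gd concentrations between 0.05 and 2 mM in water or fresh citrated human plasma. Relaxivities r1, r2 taken as slopes of relaxation rate versus Gd concentration, verified by ICP-MS.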

[2] = Relaxivity measurements at 3.0 T (whole body MRI scanner, 37 °C) in water and human plasma; format: physicochemical; details: normalized to Gd, average ± standard deviation
Procedure, shortened: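 T1 relaxivity measured on a 3.0 T whole-body MRI scanner at 37 °C in water and fresh citrated human plasma; inversion-recovery sequence, TE 7.46 ms, TIs 50–4500 ms. Three concentrations per compound between 0.05 and 2 mM; ri derived from slope of Ri versus Gd-normalised concentration.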

[3] = Chemical stability: autoclaving at 121 °C for 20 min in 10 mM Tris-HCl pH 7.4, HPLC-ICP-MS; format: physicochemical; details: 5 mmol Gd/L in 10 mM Tris-HCl pH 7.4, 121 °C
Experimental: The aliquot removed before and after autoclaving was analyzed by HPLC-ICP-MS to determine the integrity of the compound.
HPLC: Column: Hypercarb 2.5 mm×15 cm. Solvent A: 0.1% formic acid in water. Solvent B: acetonitrile. Gradient from 100% A to 5% A+95% B in 10 min. Flow 1 ml/min. Detection by ICP-MS, tuned to ^158Gd. The chromatograms, displaying the intensity of the detected Gd, were visually compared. No changes in the chromatograms before and after autoclaving were detected. The compound was stable during the autoclaving procedure.

[4] = Gd-complex stabilities in human plasma at 37 °C, 15 d (released Gd3+ by HPLC-ICP-MS); format: in vitro ADME
Experimental: Gd-Complex Stabilities in Human Plasma at 37° C., 15 d
Example 1 was separately dissolved in human plasma at 1 mmol Gd/L. As a reference for released Gd^3+ 0.1 mmol/L Gadolinium chloride (GdCl3) was dissolved in human plasma. The plasma samples were incubated for 15 days at 37° C. under 5% CO2 atmosphere to maintain the pH at 7.4. Aliquots were taken at the start and end of the incubation. The amount of Gd^3+ released from the complexes was determined by HPLC-ICP-MS. Column: Chelating Sepharose (HiTrap, 1 mL). Solvent A: 10 mM BisTris-HCl pH 6.0. Solvent B: 15 mM HNO3. Gradient: 3 min at 100% A, from 3 to 10 min at 100% B. Flow 1 mL/min. Detection by ICP-MS, tuned to ^158Gd. The chromatograms, displaying the intensity of the detected Gd, were evaluated by peak area analysis. The size of the peak of Gd^3+, eluting after the change from solvent A to B, was recorded. For Example 1 the increase of this peak and thus the release of Gd^3 after 15 days was below the limit of quantification (<0.1% of the injected total amount of Gadolinium). Example 1 is stable under physiological conditions.

[5] = Water solubility (exploratory, 10 mM Tris-HCl, 20 °C); format: physicochemical; details: water (10 mM Tris-HCl buffer), pH 7.4
Experimental: The exploratory water solubilities of the compounds were determined at room temperature (20° C.) in 0.5 mL buffer solution (10 mM Tris-HCl) in the microcentrifuge tubes (Eppendorf, 2.0 mL safe-lock caps). The solid compounds were added stepwise to the buffer solution. The suspension was mixed using a shaker (Heidolph Reax 2000) and treated 5 min in an ultrasound bath (Bandelin, Sonorex Super RK255H).

[6] = Dynamic CT diffusion phantom study (dialysis cassette in fetal bovine serum); format: physicochemical; details: dialysis cassette 20,000 MWCO, 20 mmol Gd/L, CT signal over 30 h
Procedure, shortened: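 Contrast agent at 20 mmol Gd/L in a 20 kDa MWCO dialysis cassette was placed in fetal bovine serum. Diffusion was followed by clinical CT at 100 kV and 104 mA at time points from 0 min to 30 h. Regions of interest were drawn on one central 2.4 mm slice per time point.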

## CN(CC(=O)NCC(CNC(=O)CN(C)C(=O)CN1CCN(CC(=O)[O-])CCN(CC(=O)[O-])CCN(CC(=O)[O-])CC1)(CNC(=O)CN(C)C(=O)CN1CCN(CC(=O)[O-])CCN(CC(=O)[O-])CCN(CC(=O)[O-])CC1)CNC(=O)CN(C)C(=O)CN1CCN(CC(=O)[O-])CCN(CC(=O)[O-])CCN(CC(=O)[O-])CC1)C(=O)CN1CCN(CC(=O)[O-])CCN(CC(=O)[O-])CCN(CC(=O)[O-])CC1.[Gd+3].[Gd+3].[Gd+3].[Gd+3] [Example 1, Tetragadolinium [4,10-bis(carboxylatomethyl)-7-{3,13-dimethyl-8,8-bis({[(methyl{[4,7,10-tris(carboxylatomethyl)-1,4,7,10-tetraazacyclododecan-1-yl]acetyl}amino)-acetyl]amino}methyl)-2,5,11,14-tetraoxo-15-[4,7,10-tris(carboxylatomethyl)-1,4,7,10-tetraazacyclododecan-1-yl]-3,6,10,13-tetraazapentadec-1-yl}-1,4,7,10-tetraazacyclo-dodecan-1-yl]acetate]
[1]; human plasma
  r1 human plasma: 11.7 L/mmol/s
[1]; water
  r1 water: 10.1 L/mmol/s
[2]; human plasma
  r1 human plasma: 10.3 ± 0.2 L/mmol/s
[2]; water
  r1 water: 9.1 ± 0.1 L/mmol/s
[3]
  appearance of the solution after autoclaving: clear and colorless
  changes in the chromatograms (HPLC-ICP-MS) before and after autoclaving: No changes
  stability during the autoclaving procedure: stable
[4]; 1 mmol Gd/L, pH 7.4, below the limit of quantification
  release of Gd3+ after 15 days: < 0.1 % of the injected total amount of Gadolinium
[4]; 15 days
  stability under physiological conditions: stable
[5]
  Solubility: >1000 mg/100 mL
[6]
  Diffusion half-live (20 kDa): 10.4 h
